# Source: US20250248979A1, “NOVEL GPX4 INHIBITORS AND USES THEREOF” (THE TRUSTEES OF COLUMBIA UNIVERSITY IN THE CITY OF NEW YORK, priority 2022, published 2025)
# Like-named read-outs stand apart in the source and are kept apart here.
# Legend:
# [1] = molecular target: T1, GPX4 (Homo sapiens, UniProt P36969); experiment: GPX4 activity assay in cell lysates (NADPH-coupled); assay type: biochemical; set-up: endogenous in cells; host or cells: A-673 cell lysate; conditions: for GPX4% inhibition at 2.5 μM: 4th generation
# T1 sequence (P36969 1-170 isoform P36969-2): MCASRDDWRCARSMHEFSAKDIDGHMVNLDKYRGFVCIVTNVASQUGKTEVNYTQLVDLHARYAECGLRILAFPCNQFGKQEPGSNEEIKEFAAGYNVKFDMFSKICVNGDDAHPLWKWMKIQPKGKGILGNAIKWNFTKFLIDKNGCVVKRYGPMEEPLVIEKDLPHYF
# In short: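 Native GPX4 in lysates of A-673 cells grown with 20 nM sodium selenite; lysate preincubated with compound 45 min at 37 °C in pH 8.0 buffer with 3 mM GSH, 0.5 mM NADPH and glutathione reductase. Reaction started with phosphatidylcholine hydroperoxide; NADPH consumption followed at 340 nm over 25 min; triplicates.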
# [2] = tested on: HT-1080 cells; experiment: Cellular dose response assay, HT-1080 with and without Fer-1; assay type: cell-based, human; conditions: for Selectivity: ferroptosis selectivity, IC50 with Fer-1 / IC50
# In short: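 Cells were seeded at 1500 per well, grown overnight, then treated in triplicate with 12-point 2-fold compound dilutions (0.4% DMSO final) for 48 h at 37 °C, 5% CO2. HT-1080 series were run with and without Fer-1. Viability was read by CellTiter-Glo luminescence.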
# [3] = tested on: HLF cells; experiment: Cellular dose response assay, HLF; assay type: cell-based, human; conditions: Table 7
# From the text: (§1) HT-1080 (human [Homo sapiens] […] fibrosarcoma), A-673 (human [Homo sapiens] […] Ewing's sarcoma), and SK-HEP-1 (human [Homo sapiens] […] hepatic adenocarcinoma), cells were obtained from ATCC. Huh7 (human [Homo sapiens] […] hepatocellular carcinoma), HLF (human [Homo sapiens] […] hepatocellular carcinoma), HepG2 (human [Homo sapiens] […] hepatocellular carcinoma), cells were obtained from the Cancer Cell Bank at Columbia University Irving Medical Center. HT-1080, A-673, Huh-7, and HLF cells were grown in Dulbecco's Modified Eagle Medium (DMEM) supplemented with 10% heat inactivated fetal bovine serum (HI-FBS), 1% non-essential amino acids, and 1% penicillin streptomycin. HepG2 and SK-HEP-1 cells were grown in Eagle's Minimum Essential Medium (EMEM) supplemented with 10% HI-FBS, and 1% penicillin-streptomycin. All cells were cultured at 37° C. and 5% CO2.
# (§2) HT-1080, HepG2, Huh7, HLF, and SK-HEP-1 cells were seeded into opaque white 384-well plates at 1500 cells per well then incubated at 37° C. with 5% CO2 overnight. The next day, compounds of interest were dissolved in DMSO and 12-point 2-fold dilution series were prepared with and without Fer-1. Cells were treated in triplicate (final DMSO concentration of 0.4% in all wells, including DMSO-only control wells) and incubated for a further 48 hours at 37° C. and 5% CO2. Cell viability was evaluated using CellTiter-Glo (Promega G7573) and luminescence was recorded on a Victor 5 plate reader. Data were analyzed in GraphPad Prism 9 and error bars represent standard deviation values for three technical replicates in a representative experiment.
# [4] = tested on: Huh7 cells; experiment: Cellular dose response assay, Huh7; assay type: cell-based, human; conditions: Table 7
# From the text: as §1, §2
# [5] = tested on: SK-HEP-1 cells; experiment: Cellular dose response assay, SK-HEP-1; assay type: cell-based, human; conditions: Table 7
# From the text: as §1, §2
# [6] = tested on: HepG2 cells; experiment: Cellular dose response assay, HepG2; assay type: cell-based, human; conditions: Table 7
# From the text: as §1, §2
# [7] = in vitro; assay type: in vitro ADME, mouse
# Protocol: (§3) […]. The incubation timepoints measured were 0, 5, 10, 15, 30, and 45 minutes. All samples were prepared in duplicate and analyzed by LC-MS/MS.
# [8] = in vitro; assay type: in vitro ADME, human; conditions: for Microsome Stability t1/2 (min) human: microsomes
# Protocol: as §3
# [9] = Kinetic aqueous solubility
# [10] = 1% DMSO, Phosphate Buffered Saline pH 7.4, 1 hour, ambient, UV/Vis absorbance
# [11] = with Fer-1, Table 10, read-out: IC50 (μM) HT1080 + Fer-1
# [12] = without Fer-1, Table 10, read-out: IC50 (μM) HT1080
smiles,measurement,setting,value
Cn1nc(C(=O)NC(C)(C)COC(=O)CBr)c2ccccc21 [QW-365],GPX4% inhibition at 200 (μM),"[1]; 200 μM, generation 2",94.5 ± 4.5%
same,IC50,"[2]; compounds alone, Table 7, read-out: IC50 (uM) HT1080^a",0.7 µM
same,IC50,"[2]; with fer-1, Table 7, read-out: IC50 (uM) HT1080^b",12.2 µM
same,IC50,"[3]; compounds alone, read-out: IC50 (uM) HLF^a",0.5 µM
same,IC50,"[3]; with fer-1, read-out: IC50 (uM) HLF^b",8.8 µM
same,IC50,"[4]; compounds alone, read-out: IC50 (uM) Huh7^a",0.8 µM
same,IC50,"[4]; with fer-1, read-out: IC50 (uM) Huh7^b",16.8 µM
same,IC50,"[5]; compounds alone, read-out: IC50 (uM) SKHEP1^a",0.3 µM
same,IC50,"[5]; with fer-1, read-out: IC50 (uM) SKHEP1^b",12.1 µM
same,IC50,"[6]; compounds alone, read-out: IC50 (uM) HEPG2^a",2.9 µM
same,IC50,"[6]; with fer-1, read-out: IC50 (uM) HEPG2^b",18.6 µM
COc1ccc(-c2ccc3c(C(=O)NC(C)(C)COC(=O)CCl)nn(C)c3c2)cc1C [QW-488],GPX4% inhibition at 5 μM,[1],87.3 ± 3.3%
same,Microsome Stability t1/2 (min) mouse,"[7]; mouse, microsomes",1.1 min
same,Microsome Stability t1/2 (min) human,[8],1.8 min
same,Solubility,[9]; [10],5.4 µM
same,Solubility,"[9]; aqueous solubility, Table 9",5.4 µM
CC(C)Oc1ccc(-c2ccc3c(C(=O)NC(C)(C)COC(=O)CCl)nn(C)c3c2)cc1 [QW-506],GPX4% inhibition at 5 μM,[1],75.4 ± 3.9%
same,Microsome Stability t1/2 (min) mouse,"[7]; mouse, microsomes",1.7 min
same,Microsome Stability t1/2 (min) human,[8],2.9 min
same,Solubility,[9]; [10],1.7 µM
same,Solubility,"[9]; aqueous solubility, Table 9",1.7 µM
COc1ccc(-c2cc(Cl)cc(Cn3nc(C(=O)NC(C)(C)COC(=O)CCl)c4ccc(-c5ccc(OC)c(Cl)c5)cc43)c2)cc1Cl [QW-853],GPX4% inhibition at 2.5 μM,[1],45.5 ± 34.3%
same,Selectivity,[2],56.8
same,IC50,[2]; [11],21 µM
same,IC50,[2]; [12],0.37 µM
CC(C)Oc1ccc(-c2ccc3c(C(=O)NC(C)(C)COC(=O)CCl)nn(Cc4cc(Cl)cc(Cl)c4)c3c2)cc1Cl [QW-857],"GPX4 inhibitory activity, result in words",[1],greater GPX4 inhibitory activity than QW-446 at 2.5 μM concentration
same,GPX4% inhibition at 2.5 μM,[1],66.7 ± 26.2%
same,Selectivity,[2],>790
same,IC50,[2]; read-out: IC50 against HT1080 cell lines,0.0506 µM
same,IC50,[2]; [11],> 40 µM
COc1ccc(-c2ccc3c(C(=O)NC(C)(C)COC(=O)CCl)nn(Cc4ccc(C(F)(F)F)cc4)c3c2)cc1Cl [QW-873],GPX4% inhibition at 2.5 μM,[1],45.6 ± 39.7%
same,Selectivity,[2],3.4
same,IC50,[2]; [11],26.8 µM
same,IC50,[2]; [12],8 µM
CC(C)(COC(=O)CCl)NC(=O)c1nn(Cc2ccc(C(F)(F)F)cc2)c2cc(-c3ccc(N4CCOCC4)c(Cl)c3)ccc12 [QW-874],GPX4% inhibition at 2.5 μM,[1],57.5 ± 24.5%
same,Selectivity,[2],1.7
same,IC50,[2]; [11],49 µM
same,IC50,[2]; [12],28.3 µM
CC(C)(COC(=O)CCl)NC(=O)c1nn(Cc2ccc(-c3ccc(N4CCOCC4)c(Cl)c3)cc2)c2cc(-c3ccc(N4CCOCC4)c(Cl)c3)ccc12 [QW-883],GPX4% inhibition at 2.5 μM,[1],41.1 ± 40.9%
same,Selectivity,[2],371.4
same,IC50,[2]; [11],20.8 µM
same,IC50,"[2]; without Fer-1, Table 10, read-out: IC50 HT1080",0.0564 µM
COc1ccc(-c2cc(Cl)cc(Cn3nc(C(=O)NC(C)(C)C(C)(C)OC(=O)CCl)c4ccc(-c5ccc(OC)c(Cl)c5)cc43)c2)cc1Cl [QW-888],GPX4% inhibition at 2.5 μM,[1],78.7 ± 5.0%
same,Selectivity,[2],2.0
same,IC50,[2]; [11],49.6 µM
same,IC50,[2]; [12],24.5 µM
"C[C@]12CC[C@H]3[C@@H](CCC4=CC(=O)CC[C@@]43C)[C@@H]1CC[C@@H]2O [Testosterone, reference compound]",Microsome Stability t1/2 (min) mouse,[7]; mouse liver microsomes,5.3 min
same,half-life,"[8]; pH 7.4, human liver microsomes, read-out: Microsome Stability t1/2 (min) human",9.5 min
